We go through 17 molecules from paper PMC12692346, “Imidazolinium-Based NHC–Metal Complexes Overcome Both Cancer Multidrug Resistance and Cisplatin Resistance In Vitro” (International Journal of Molecular Sciences, 2025).

What all share (format): cell-based, human
The test system of one test is Mes-Sa/Dx5 eGFP. Kind of test: Triple coculture fluorescence cytotoxicity test, doxorubicin-selected MDR line. Conditions: for RR_Dx5 resistance ratio (IC50_MDR line / IC50_parental line) of Mes-Sa/Dx5: Mes-Sa/Dx5 vs Mes-Sa; for IC50: triple coculture, 144 h incubation, fluorescence readout. As to the method: (§1) All synthesized complexes and representatives of the respective ligands (Lb, Lc, SIPr, IPr) were tested in a triple coculture of uterine sarcoma cell lines, consisting of the parental Mes-Sa cell line, and its MDR derivatives Mes-Sa/B1 and Mes-Sa/Dx5, transfected or selected in doxorubicin to overexpress P-glycoprotein, respectively (Figure 2a–c, Table S2). Each cell line expresses a distinct fluorescent protein (mCherry, mOrange, and eGFP, respectively), and the total fluorescence of a well is proportional to the cell number, allowing the assessment of compound cytotoxicity.
(§2) In a triple coculture system, cell lines expressing different fluorescent proteins were seeded in the same well. Cell lines (Mes-Sa mCherry, Mes-Sa/B1 mOrange, Mes-Sa/Dx5 eGFP [25]) were admixed and seeded on 384-well plates at a density of 3 × 800 cells/well (1:1:1 ratio), resulting in an overall total of 2400 cells. The next day, serially diluted compounds were added to the wells. Liquid handling was managed by a Hamilton StarLet pipetting robot. After 144 h of incubation, the fluorescence of mCherry (ex/em: 585/610 nm), mOrange (ex/em: 545/567 nm) and eGFP (ex/em: 485/510 nm) was recorded with an EnSpire plate reader (PerkinElmer, Waltham, MA, USA).
(§3) pIC50 values derived from both co- and monoculture systems were determined by a custom program written in C# [25], then average and standard deviations were calculated and transformed to IC50 values. Every compound was tested in at least 3 independent experiments in triplicates.

For another test, the system named is Mes-Sa/B1 mOrange. Kind of test: Triple coculture fluorescence cytotoxicity test, ABCB1-transfected MDR line. Conditions: for RR_B1 resistance ratio (IC50_MDR line / IC50_parental line) of Mes-Sa/B1: Mes-Sa/B1 vs Mes-Sa; for IC50: triple coculture, 144 h incubation, fluorescence readout. As to the method: as §1, §2, §3
In test [1] the test system is Mes-Sa mCherry uterine sarcoma cell line. Kind of test: Triple coculture fluorescence cytotoxicity test, parental line. Conditions: 144 h incubation, fluorescence readout. On the procedure:
as §1, §2, §3

As a reminder, the IC50 is the concentration needed to halve the response being measured.

In the case of `C=C[CH2][Pd]([Cl])=[C]1N([C@@H](C)c2ccccc2)C[C@H](C(C)(C)C)N1c1c(C(C)C)cccc1C(C)C` [Compound 4b], in the test with Mes-Sa/Dx5 eGFP, the “RR_Dx5 resistance ratio (IC50_MDR line / IC50_parental line) of Mes-Sa/Dx5” value was determined as 2.4 and the IC50 turned out to be 12.2 µM. In the test with Mes-Sa/B1 mOrange, the “RR_B1 resistance ratio (IC50_MDR line / IC50_parental line) of Mes-Sa/B1” value came out at 1.8 and the IC50 turned out to be 9.33 µM. In addition, the IC50 in test [1] was found to be 5.19 µM.
On to `CC(C)c1cccc(C(C)C)c1-n1cc[n+](-c2c(C(C)C)cccc2C(C)C)c1` [IPr, reference compound], for which the IC50 in the test with Mes-Sa/Dx5 eGFP (Homo sapiens, MES-SA/Dx5) was 51.3 µM; with Mes-Sa/B1 mOrange (Homo sapiens, MES-SA) it was 33.9 µM; in test [1] (Homo sapiens, MES-SA), 2.19 µM. The “RR_Dx5 resistance ratio (IC50_MDR line / IC50_parental line) of Mes-Sa/Dx5” value in the test with Mes-Sa/Dx5 eGFP is 23.4. Besides, the “RR_B1 resistance ratio (IC50_MDR line / IC50_parental line) of Mes-Sa/B1” value in the test with Mes-Sa/B1 mOrange is 15.5.
Take `CC(C)c1cccc(C(C)C)c1N1[C](=[Ag][Cl])N([C@H](C)c2ccccc2)C[C@@H]1C(C)(C)C` [Compound 2c]: in the test with Mes-Sa/Dx5 eGFP, the “RR_Dx5 resistance ratio (IC50_MDR line / IC50_parental line) of Mes-Sa/Dx5” value is 4.2 and half-maximal inhibition (IC50) was put at 7.14 µM. In the test on Mes-Sa/B1 mOrange, the “RR_B1 resistance ratio (IC50_MDR line / IC50_parental line) of Mes-Sa/B1” value is recorded as 8.5 and inhibition was half-maximal at 14.4 µM (IC50). Also, the IC50 in test [1] was determined as 1.69 µM.
Take `CC(C)c1cccc(C(C)C)c1N1[C](=[Au][Cl])N([C@H](C)c2ccccc2)C[C@@H]1C(C)(C)C` [Compound 3c]: in the test with Mes-Sa/Dx5 eGFP, the “RR_Dx5 resistance ratio (IC50_MDR line / IC50_parental line) of Mes-Sa/Dx5” value amounted to 2.1 and the IC50 came to 39.6 µM. In addition, in the test with Mes-Sa/B1 mOrange, the “RR_B1 resistance ratio (IC50_MDR line / IC50_parental line) of Mes-Sa/B1” value is 2.1 and the IC50 is 39.8 µM. The IC50 in test [1] amounted to 18.6 µM.
As to `CC(C)c1cccc(C(C)C)c1N1[C](=[Ag][Cl])N([C@@H](C)C(C)(C)C)C[C@@H]1C(C)(C)C` [Compound 2f], in the test with Mes-Sa/Dx5 eGFP, the “RR_Dx5 resistance ratio (IC50_MDR line / IC50_parental line) of Mes-Sa/Dx5” value was determined as 1.8 and the 50% inhibitory concentration (IC50) was determined as 1.37 µM. In the test with Mes-Sa/B1 mOrange, the “RR_B1 resistance ratio (IC50_MDR line / IC50_parental line) of Mes-Sa/B1” value turned out to be 5.1 and inhibition was half-maximal at 3.77 µM (IC50). Moreover, in test [1], the IC50 came to 0.74 µM.
`COc1cc([C@@H]2c3cc4c(cc3[C@@H](O[C@@H]3O[C@@H]5CO[C@@H](C)O[C@H]5[C@H](O)[C@H]3O)[C@H]3COC(=O)[C@H]23)OCO4)cc(OC)c1O` [Etoposide, reference compound]: the IC50 is 1.9 µM in the test on Mes-Sa/Dx5 eGFP (Homo sapiens, MES-SA/Dx5); 1.11 µM in the test with Mes-Sa/B1 mOrange (Homo sapiens, MES-SA); 0.12 µM in test [1] (Homo sapiens, MES-SA). In addition, in the test on Mes-Sa/Dx5 eGFP, the “RR_Dx5 resistance ratio (IC50_MDR line / IC50_parental line) of Mes-Sa/Dx5” value is reported as 15.4. For the same molecule, in the test on Mes-Sa/B1 mOrange, the “RR_B1 resistance ratio (IC50_MDR line / IC50_parental line) of Mes-Sa/B1” value was determined as 9.0.
Take `CC(C)c1cccc(C(C)C)c1-n1ccn(-c2c(C(C)C)cccc2C(C)C)[c]1=[Au][Cl]` [Compound 7b]: in the test on Mes-Sa/Dx5 eGFP, the “RR_Dx5 resistance ratio (IC50_MDR line / IC50_parental line) of Mes-Sa/Dx5” value is recorded as 3.2 and the midpoint of inhibition, the IC50, lay at 60.3 µM. In the test with Mes-Sa/B1 mOrange, the “RR_B1 resistance ratio (IC50_MDR line / IC50_parental line) of Mes-Sa/B1” value turned out to be 1.9 and the IC50 stood at 36.3 µM. The IC50 in test [1] was found to be 18.6 µM.
As to `CC(C)c1cccc(C(C)C)c1-n1ccn(-c2c(C(C)C)cccc2C(C)C)[c]1=[Cu+]=[c]1n(-c2c(C(C)C)cccc2C(C)C)ccn1-c1c(C(C)C)cccc1C(C)C.F[B-](F)(F)F` [Compound 9b], in the test with Mes-Sa/Dx5 eGFP, the “RR_Dx5 resistance ratio (IC50_MDR line / IC50_parental line) of Mes-Sa/Dx5” value turned out to be 37.3 and the half-inhibitory concentration (IC50) turned out to be 2.15 µM. Further, in the test on Mes-Sa/B1 mOrange, the “RR_B1 resistance ratio (IC50_MDR line / IC50_parental line) of Mes-Sa/B1” value amounted to 38.0 and the half-inhibitory concentration (IC50) came out at 2.19 µM. Moreover, in test [1], the IC50 is 0.058 µM.
Consider `CC(C)c1cccc(C(C)C)c1N1[CH]([Cu][Cl])N(Cc2ccccc2)C[C@@H]1C(C)(C)C` (stereo partly drawn) [Compound 1a], for which, in the test with Mes-Sa/Dx5 eGFP, the “RR_Dx5 resistance ratio (IC50_MDR line / IC50_parental line) of Mes-Sa/Dx5” value stood at 1.3 and the IC50 was found to be 0.69 µM. In the test on Mes-Sa/B1 mOrange, the “RR_B1 resistance ratio (IC50_MDR line / IC50_parental line) of Mes-Sa/B1” value is 4.7 and the 50% inhibitory concentration (IC50) was found to be 2.45 µM. The IC50 in test [1] was found to be 0.52 µM.
The like results for `CC(C)c1cccc(C(C)C)c1-n1ccn(-c2c(C(C)C)cccc2C(C)C)[c]1=[Cu][Cl]` [Compound 5b] were, in that order, 1.8, 1.83 µM, 2.0, 2 µM and 1.01 µM.
Consider `CC(C)c1cccc(C(C)C)c1N1[C](=[Ag][Cl])N([C@@H](C)c2cccc3ccccc23)C[C@@H]1C(C)(C)C` [Compound 2d], for which the “RR_Dx5 resistance ratio (IC50_MDR line / IC50_parental line) of Mes-Sa/Dx5” value with Mes-Sa/Dx5 eGFP worked out at 6.2. Besides, the IC50 in the test on Mes-Sa/Dx5 eGFP is 3.37 µM; in the test on Mes-Sa/B1 mOrange, 5.2 µM; in test [1] it was 0.54 µM. In addition, the “RR_B1 resistance ratio (IC50_MDR line / IC50_parental line) of Mes-Sa/B1” value in the test on Mes-Sa/B1 mOrange was determined as 9.6.
Regarding `CC(C)c1cccc(C(C)C)c1-n1ccn(-c2c(C(C)C)cccc2C(C)C)[c]1=[Ag][Cl]` [Compound 6b], in the test with Mes-Sa/Dx5 eGFP, the “RR_Dx5 resistance ratio (IC50_MDR line / IC50_parental line) of Mes-Sa/Dx5” value turned out to be 2.1 and the IC50 stood at 3.89 µM. In the test with Mes-Sa/B1 mOrange, the “RR_B1 resistance ratio (IC50_MDR line / IC50_parental line) of Mes-Sa/B1” value is on record as 2.4 and inhibition was half-maximal at 4.37 µM (IC50). In addition, in test [1], the IC50 amounted to 1.82 µM.
As for `CC(C)c1cccc(C(C)C)c1N1C=[N+]([C@H](C)c2ccccc2)C[C@@H]1C(C)(C)C` [Lc], the IC50 with Mes-Sa/Dx5 eGFP (Homo sapiens, MES-SA/Dx5) stood at 73 µM; in the test on Mes-Sa/B1 mOrange (Homo sapiens, MES-SA) it was 51.3 µM; in test [1] (Homo sapiens, MES-SA), 2.4 µM. Further, in the test on Mes-Sa/Dx5 eGFP, the “RR_Dx5 resistance ratio (IC50_MDR line / IC50_parental line) of Mes-Sa/Dx5” value worked out at 30.4. Besides, in the test with Mes-Sa/B1 mOrange, the “RR_B1 resistance ratio (IC50_MDR line / IC50_parental line) of Mes-Sa/B1” value is reported as 21.4.
On to `CC(C)c1cccc(C(C)C)c1N1[CH]([Cu][Cl])N([C@H](C)c2ccccc2)C[C@@H]1C(C)(C)C` (stereo partly drawn) [Compound 1c], for which the figures for the “RR_Dx5 resistance ratio (IC50_MDR line / IC50_parental line) of Mes-Sa/Dx5” value in the test on Mes-Sa/Dx5 eGFP and in the test on Mes-Sa/Dx5 eGFP (listed as 1c*) were 1.5 and 2.9, respectively. Moreover, the 50% inhibitory concentration (IC50) is 1.18 µM in the test on Mes-Sa/Dx5 eGFP; 2.18 µM in the test on Mes-Sa/Dx5 eGFP (listed as 1c*); 5.5 µM with Mes-Sa/B1 mOrange; 3.97 µM in the test on Mes-Sa/B1 mOrange (listed as 1c*); 0.8 µM in test [1]; 0.74 µM in test [1] (listed as 1c*). The “RR_B1 resistance ratio (IC50_MDR line / IC50_parental line) of Mes-Sa/B1” value in the test with Mes-Sa/B1 mOrange came out at 6.9; with Mes-Sa/B1 mOrange (listed as 1c*), 5.4.
As to `CC(C)c1cccc(C(C)C)c1N1[CH]([Cu][Cl])N([C@@H](C)C(C)(C)C)C[C@@H]1C(C)(C)C` (stereo partly drawn) [Compound 1f], in the test on Mes-Sa/Dx5 eGFP, the “RR_Dx5 resistance ratio (IC50_MDR line / IC50_parental line) of Mes-Sa/Dx5” value was 1.4 and it took 4.19 µM to reach half-maximal inhibition (IC50). For the same molecule, in the test with Mes-Sa/B1 mOrange, the “RR_B1 resistance ratio (IC50_MDR line / IC50_parental line) of Mes-Sa/B1” value worked out at 2.7 and the IC50 came to 8.13 µM. The half-maximal inhibitory concentration (IC50) in test [1] is 3.04 µM.
For `CC(C)c1cccc(C(C)C)c1N1[C](=[Au][Cl])N([C@H](C)c2ccc3ccccc3c2)C[C@@H]1C(C)(C)C` [Compound 3e], in the test on Mes-Sa/Dx5 eGFP, the “RR_Dx5 resistance ratio (IC50_MDR line / IC50_parental line) of Mes-Sa/Dx5” value is 2.3 and 16.9 µM corresponded to half-maximal inhibition (IC50). Besides, in the test on Mes-Sa/B1 mOrange, the “RR_B1 resistance ratio (IC50_MDR line / IC50_parental line) of Mes-Sa/B1” value turned out to be 2.6 and the IC50 was found to be 19.1 µM. For the same molecule, the half-inhibitory concentration (IC50) in test [1] turned out to be 7.47 µM.
The matching figures for `CC(C)c1cccc(C(C)C)c1N1[C](=[Au][Cl])N([C@@H](C)C(C)(C)C)C[C@@H]1C(C)(C)C` [Compound 3f]: 1.2, 13.8 µM, 1.6, 18.6 µM and 11.4 µM.
